In brackets after ≈: the same amount, converted by molar mass.
How the values were obtained:
MCF7 = test: Cytotoxicity against human MCF7 cells assessed as reduction in cell viability at 0.1 to 100 uM by MTT assay; type: functional, cell-based
Staphylococcus aureus [1] = test: Antibacterial activity against Staphylococcus aureus assessed as reduction in bacterial cell growth at 0.03 to 64 ug/ml incubated for 16 to 18 hrs by CLSI broth dilution method; type: functional
Suillus luteus = test: Antifungal activity against Suillus luteus assessed as reduction in fungal cell growth; type: functional
Staphylococcus aureus [2] = test: Antibacterial activity against Staphylococcus aureus assessed as diameter of zone inhibition at 100 ppm by disc diffusion method; type: functional; conditions: read-out: DIZ
Escherichia coli [3] = test: Antibacterial activity against Escherichia coli assessed as diameter of zone inhibition at 100 ppm by disc diffusion method; type: functional; conditions: read-out: DIZ
Pseudomonas aeruginosa = test: Antibacterial activity against Pseudomonas aeruginosa ATCC 27853 assessed as reduction in bacterial cell growth at 0.03 to 64 ug/ml incubated for 16 to 18 hrs by CLSI broth dilution method; type: functional
Escherichia coli [4] = test: Antibacterial activity against Escherichia coli ATCC 25922 assessed as reduction in bacterial cell growth at 0.03 to 64 ug/ml incubated for 16 to 18 hrs by CLSI broth dilution method; type: functional
Enterococcus faecalis = test: Antibacterial activity against Enterococcus faecalis ATCC 29212 assessed as reduction in bacterial cell growth at 0.03 to 64 ug/ml incubated for 16 to 18 hrs by CLSI broth dilution method; type: functional
Staphylococcus aureus [5] = test: Antibacterial activity against Staphylococcus aureus ATCC 25923 assessed as reduction in bacterial cell growth at 0.03 to 64 ug/ml incubated for 16 to 18 hrs by CLSI broth dilution method; type: functional
Staphylococcus aureus [6] = test: Antibacterial activity against Staphylococcus aureus assessed as inhibition zone; type: functional
Staphylococcus aureus [7] = test: Antibacterial activity against Staphylococcus aureus; type: functional

SMILES: Cn1cc[n+](C(Cn2cnc3ccc(Cl)cc3c2=O)c2cc3cc(Br)ccc3o2)c1 (centres undefined)
- IC50 (MCF7): 570 to 1000 nM

SMILES: N#Cc1ccc(/C=C/c2nc3ccccc3c(=O)n2-c2cccc(OCc3cn(Cc4ccccc4)nn3)c2)cc1
- MIC (Staphylococcus aureus [1]): 0.5 µg/mL (≈ 0.932 µM)

SMILES: N#Cc1ccc(/C=C/c2nc3ccccc3c(=O)n2-c2cccc(OCc3cn(Cc4ccc([N+](=O)[O-])cc4)nn3)c2)cc1
- MIC (Staphylococcus aureus [1]): 2 µg/mL (≈ 3.44 µM)

SMILES: N#Cc1ccc(/C=C/c2nc3ccccc3c(=O)n2-c2cccc(OCc3cn(Cc4ccc(Br)cc4)nn3)c2)cc1
- MIC (Staphylococcus aureus [1]): 16 µg/mL (≈ 26 µM)

SMILES: N#Cc1ccc(/C=C/c2nc3ccccc3c(=O)n2-c2ccc(OCc3cn(Cc4ccc(Br)cc4)nn3)cc2)cc1
- MIC (Staphylococcus aureus [1]): > 64 µg/mL

SMILES: N#Cc1ccc(/C=C/c2nc3ccccc3c(=O)n2-c2cccc(OCc3cn(-c4ccc(C(F)(F)F)cc4)nn3)c2)cc1
- MIC (Staphylococcus aureus [1]): 4 µg/mL (≈ 6.77 µM)

SMILES: N#Cc1ccc(/C=C/c2nc3ccccc3c(=O)n2-c2cccc(OCc3cn(-c4cccc(C(=O)O)c4)nn3)c2)cc1
- MIC (Staphylococcus aureus [1]): 4 µg/mL (≈ 7.06 µM)

SMILES: COc1ccc(Cn2cc(COc3cccc(-n4c(/C=C/c5ccc(C#N)cc5)nc5ccccc5c4=O)c3)nn2)cc1
- MIC (Staphylococcus aureus [1]): 0.5 µg/mL (≈ 0.882 µM)

SMILES: N#Cc1ccc(/C=C/c2nc3ccccc3c(=O)n2-c2cccc(OCc3cn(-c4cccc(Cl)c4)nn3)c2)cc1
- MIC (Staphylococcus aureus [1]): 0.5 µg/mL (≈ 0.898 µM)

SMILES: N#Cc1ccc(/C=C/c2nc3ccccc3c(=O)n2-c2cccc(OCc3cn(Cc4cccc(Br)c4)nn3)c2)cc1
- MIC (Staphylococcus aureus [1]): 0.5 µg/mL (≈ 0.812 µM)

SMILES: Cc1cccc(-n2cc(COc3cccc(-n4c(/C=C/c5ccc(C#N)cc5)nc5ccccc5c4=O)c3)nn2)c1
- MIC (Staphylococcus aureus [1]): 0.5 µg/mL (≈ 0.932 µM)

SMILES: O=c1c2ccccc2nc(/C=C/c2ccc(Cl)cc2)n1-c1cccc(OCc2cn(-c3cccc(F)c3)nn2)c1
- MIC (Staphylococcus aureus [1]): 4 µg/mL (≈ 7.27 µM)

SMILES: COc1ccc(-n2cc(COc3cccc(-n4c(/C=C/c5ccc(C#N)cc5)nc5ccccc5c4=O)c3)nn2)cc1
- MIC (Staphylococcus aureus [1]): 4 µg/mL (≈ 7.24 µM)

SMILES: N#Cc1ccc(/C=C/c2nc3ccccc3c(=O)n2-c2cccc(OCc3cn(-c4cccc(F)c4)nn3)c2)cc1
- MIC (Staphylococcus aureus [1]): 0.5 µg/mL (≈ 0.925 µM)

SMILES: N#Cc1ccc(/C=C/c2nc3ccccc3c(=O)n2-c2cccc(OCc3cn(-c4ccc(Cl)cc4)nn3)c2)cc1
- MIC (Staphylococcus aureus [1]): 0.5 µg/mL (≈ 0.898 µM)

SMILES: C#CCOc1cccc(-n2c(/C=C/c3ccc(C#N)cc3)nc3c(C)cccc3c2=O)c1
- MIC (Staphylococcus aureus [1]): 1 µg/mL (≈ 2.4 µM)

SMILES: CCCCNC(=O)Oc1ccc(-n2c(/C=C/c3ccc(Cl)cc3)nc3cc(Cl)ccc3c2=O)cc1
- MIC (Suillus luteus): 125 µg/mL (≈ 246 µM)

SMILES: Cc1nc2ccc(Br)cc2c(=O)n1/N=C/c1cc(Br)cc(Br)c1O
- zone of inhibition at 100 ppm (Staphylococcus aureus [2]): 24 mm
- zone of inhibition at 100 ppm (Escherichia coli [3]): 27 mm

SMILES: Cn1cc[n+](C(Cn2cnc3ccc(Cl)cc3c2=O)c2cc3ccccc3o2)c1 (centres undefined)
- IC50 (MCF7): 570 to 1000 nM

SMILES: CC(C)NC(=O)c1cccc(-n2c(/C=C/c3ccc(C#N)cc3)nc3ccccc3c2=O)c1
- MIC (Staphylococcus aureus [1]): 0.25 µg/mL (≈ 0.575 µM)

SMILES: N#Cc1ccc(/C=C/c2nc3ccccc3c(=O)n2-c2cccc(C#N)c2)cc1
- MIC (Staphylococcus aureus [1]): 0.5 µg/mL (≈ 1.34 µM)

SMILES: O=c1c2c(Br)cc(Br)cc2nc(-c2ccccc2)n1-c1nc2ccc(Br)cc2s1
- MIC (Pseudomonas aeruginosa): 1 to 8.5 µg/mL (≈ 1.69 to 14.4 µM)
- MIC (Escherichia coli [4]): 1 to 8.5 µg/mL (≈ 1.69 to 14.4 µM)
- MIC (Enterococcus faecalis): 1 to 8.5 µg/mL (≈ 1.69 to 14.4 µM)
- MIC (Staphylococcus aureus [5]): 1 to 8.5 µg/mL (≈ 1.69 to 14.4 µM)

SMILES: Cc1nc2ccc(Br)cc2c(=O)n1/N=C/c1cc(I)cc(I)c1O
- zone of inhibition at 100 ppm (Staphylococcus aureus [2]): 14 mm
- zone of inhibition at 100 ppm (Escherichia coli [3]): 16 mm

SMILES: Cc1nc2ccc(Br)cc2c(=O)n1/N=C/c1cc(Cl)cc(Cl)c1O
- zone of inhibition at 100 ppm (Staphylococcus aureus [2]): 14 mm
- zone of inhibition at 100 ppm (Escherichia coli [3]): 16 mm

SMILES: C=CCOc1cccc(-n2c(/C=C/c3ccc(C#N)cc3)nc3ccccc3c2=O)c1
- MIC (Staphylococcus aureus [1]): 0.125 µg/mL (≈ 0.308 µM)

SMILES: COc1ccc2ncn(CC(c3cc4ccccc4o3)[n+]3ccn(C)c3)c(=O)c2c1 (centres undefined)
- IC50 (MCF7): 570 to 1000 nM

SMILES: Cc1ccc2c(c1)c(=O)n(-c1ccccc1)c1nnc(-c3ccccc3)n21
- inhibition zone (IZ) (Staphylococcus aureus [6]): 17 mm
- MIC (Staphylococcus aureus [7]): 32 µg/mL (≈ 90.8 µM)

SMILES: O=c1c2c(Br)cc(Br)cc2nc(-c2ccccc2)n1-c1nc2cc(Cl)ccc2s1
- MIC (Pseudomonas aeruginosa): 1.2 to 9 µg/mL (≈ 2.19 to 16.4 µM)
- MIC (Escherichia coli [4]): 1.2 to 9 µg/mL (≈ 2.19 to 16.4 µM)
- MIC (Enterococcus faecalis): 1.2 to 9 µg/mL (≈ 2.19 to 16.4 µM)
- MIC (Staphylococcus aureus [5]): 1.2 to 9 µg/mL (≈ 2.19 to 16.4 µM)

SMILES: Cc1cccc2c(=O)n(-c3cccc(O)c3)c(/C=C/c3ccc(C#N)cc3)nc12
- MIC (Staphylococcus aureus [1]): 0.5 µg/mL (≈ 1.32 µM)
